# How the values were obtained:
# KB cells = assay: In vitro activity in KB cells (3H-thymidine incorporation); type: cell-based; settings: 3H-thymidine incorporation relative to untreated controls
# Description: Cells were seeded in 24-well Falcon plates and allowed to form nearly confluent monolayers overnight. After one rinse with 1 mL of fresh FFRPMI/HIFCS, each well received 1 mL, of medium containing increasing concentrations of test agent (3 wells per sample). Cells were pulsed with targeted agents for 2 hr at 37° C., rinsed 4 times with 0.5 mL of medium, and then chased in 1 mL of fresh medium up to 70 hr. Cells were treated with non-targeted agent EC0347 for a continuous 72 h. Spent medium was aspirated from all wells and replaced with fresh medium containing 5 μCi/mL ^3H-thymidine. After a further 2 hr 37° C. incubation, cells were washed 3 times with 0.5 mL of PBS and then treated with 0.5 mL of ice-cold […] per well. After 15 min, the trichloroacetic acid was aspirated and the cell material solubilized by the addition of 0.5 mL of 0.25 N sodium hydroxide for 15 min. Four hundred and fifty microliters of each solubilized sample were transferred to scintillation vials containing 3 mL of Ecolume scintillation cocktail and then counted in a liquid scintillation counter. Final tabulated results were expressed as the percentage of ^3H-thymidine incorporation relative to untreated controls and IC50 values calculated using Graphpad Prism software.
# subcutaneous KB tumors = assay: Antitumor activity in KB tumor model; type: in vivo, Female Balb/c nu/nu mice; settings: FIG. 1; 2 μmol/kg, single-dose; n=5; mice with subcutaneous KB tumors
# Description: Female Balb/c nu/nu mice were fed ad libitum with folate-deficient chow (Harlan diet #TD01013) for the duration of the experiment. KB tumor cells were inoculated subcutaneously at the right flank of each mouse. Mice were dosed after the tumors have reached a range of 107-152 mm^3 through the lateral tail vein under sterile conditions in a volume of 200 μL of phosphate-buffered saline (PBS).
# Growth of each s.c. tumor was followed by measuring the tumor two times per week. Tumors were measured in two perpendicular directions using Vernier calipers, and their volumes were calculated as 0.5×L×W^2, where L=measurement of longest axis in mm and W=measurement of axis perpendicular to L in mm.
Compound,"IC50 (KB cells; Homo sapiens, non-targeted agent, continuous 72 h) [nM]","IC50 (KB cells; targeted agents pulsed 2 hr at 37° C., chased up to 70 hr) [nM]",cure (number of mice) (subcutaneous KB tumors)
"CCCC(=O)OCN(C(=O)[C@@H](NC(=O)[C@H]1CCCCN1C)C(C)CC)[C@H](C[C@@H](OC(C)=O)c1nc(C(=O)N[C@@H](Cc2ccc(O)cc2)C[C@H](C)C(=O)NN)cs1)C(C)C (stereo partly drawn) [EC0347, Tubulysin B Hydrazide, reference compound]",1.5,–,–
C#CCN(Cc1ccc2nc(N)[nH]c(=O)c2c1)c1ccc(C(=O)N[C@@H](CCC(=O)OCCSSC[C@H](NC(=O)[C@H](CCC(=O)NC[C@H](O)[C@@H](O)[C@H](O)[C@H](O)CO)NC(=O)[C@H](CCC(=O)O)NC(=O)[C@H](CCC(=O)NC[C@H](O)[C@@H](O)[C@H](O)[C@H](O)CO)NC(=O)[C@H](CCC(=O)O)NC(=O)[C@H](CCC(=O)NC[C@H](O)[C@@H](O)[C@H](O)[C@H](O)CO)NC(=O)CCSSCCOC(=O)NNC(=O)[C@@H](C)C[C@H](Cc2ccc(O)cc2)NC(=O)c2csc([C@@H](C[C@H](C(C)C)N(COC(=O)CCC)C(=O)[C@@H](NC(=O)[C@H]3CCCCN3C)C(C)CC)OC(C)=O)n2)C(=O)O)C(=O)O)cc1 (stereo partly drawn) [EC2133],–,0.8,1
